Reference: patent US20240043473A1, “NOOTROPIC PEPTIDES FOR TREATING LYSOSOMAL STORAGE DISEASES” (Phoenix Nest Inc., priority 2021, published 2024)
“Also recorded” adds a separate entry of the source. No end group written: not given here.

Legend:
[1] = tested on: β-hexosaminidase; test: Total β-hexosaminidase activity in brain homogenates; format: in vivo, mouse; details: chronic daily 50 μg/kg BW, vs saline
Procedure: The activity of β-hexosaminidase was measured by combining 2.5 μl of 10× diluted homogenate ([…] of protein) with 15 μl of 0.1 M sodium acetate buffer (pH 4.2), and 12.5 μl of 3 mM 4-methylumbelliferyl N-acetyl-β-D-glucosaminide (Sigma-Aldrich) followed by incubation for 30 min at 37° C. The reaction was stopped 0.4 M glycine buffer (pH 10.4) and fluorescence was measured as above.
(§1) Starting from 3 weeks of age, WT C57B16 and homozygous Hgsnat^P304L male and female mice were randomly divided in treatment and control groups (6-13 mice/sex/genotype/treatment; see Table I). The control group was daily administered with saline (5 μL to each nostril), while for the treatment group, saline was supplemented with 125 µg of AVP6/mL, which would result in a dose of approximately 50 μg/kg BW/day. The peptide formulation was prepared once, aliquoted and kept frozen at −80° C. until use. At 4 months, all mice were studied by EPM, OF, YM and NOR behavioral tests. Administration of the drug or saline was continued through the days on which the assays were conducted. Then approximately at 5 months 4-5 mice in each group were sacrificed. Their blood plasma was collected, and their tissues were either snap-frozen or fixed and cryopreserved to analyze CNS pathology as described above. […] When such signs were detected, the mice were studied by ERG and sacrificed within 1-2 days. […]

[2] = tested on: Hgsnat^P304L mice; test: Survival / onset of lethal urinary retention under chronic daily treatment; format: in vivo, mouse; details: chronic daily 50 μg/kg BW; AVP6-treated Hgsnat^P304L mice
Procedure: as §1, with “sacrificed.” for “sacrificed. Their blood plasma was collected, and their tissues were either snap-frozen or fixed and cryopreserved to analyze CNS pathology as described above.”
Unlike human MPS III patients, Hgsnat^P304L mice at the age of approximately 8 months develop urinary retention resulting in abdominal distension and requiring humane euthanasia. […] Previously we determined the average survival age of Hgsnat^P304L mice as 42 weeks. To test whether the AVP6 treatment delayed development of this phenotype, mice in both treatment and vehicle groups were examined for the signs of urinary retention on a daily basis, starting from the age of 7 months, and immediately sacrificed, when abdominal distension was detected. […]

[3] = tested on: primary hippocampal neurons of Hgsnat^P304L mice; test: Synaptic protein markers and BDNF in primary hippocampal neuronal cultures (immunocytochemistry); format: cell-based, mouse; details: 10 μM in culture media
Procedure: Model and Developmental time points: Primary hippocampal neuronal cultures established from E16 embryos of […] mice.
Method: The hippocampal neurons were cultured until DIV (Day In Vitro) 21 and 50% of media was changed every 3 days. AVP6 at a final concentration of 10 μM was added to the media when plating and during every media change. At DIV21 neurons were fixed and analysed by immunohistochemistry using markers of dendrites (MAP), axons (neurofilament protein, NF-H), and synaptic transmission (PSD95 and BDNF). Synaptic spine architecture and additional protein synaptic markers (Vglut/PSD95 and VAMP) will be studied.
Primary hippocampal neurons were cultured from the brains of embryo at gestational day 16 (E16). The hippocampi were isolated and treated with 2.5% trypsin solution (Sigma-Aldrich, T4674) for 15 min at 37° C. The cells were washed 3 times with Hank's Balanced Salt Solution (HBSS, Gibco, 14025-092) and mechanically dissociated by pipetting, using glass Pasteur pipettes with 3 different opening sizes (3, 2 and 1 mm). Then, they were counted with the viability dye trypan blue (ThermoFisher Scientific, 15250061), using a hemocytometer, and resuspended in Neurohasal media (Gibco, 21103-049) containing L-glutamine, B27, N2, penicillin and streptomycin. […]
Cultured mouse neurons at day in vitro (DIV) 21 or iPSC-derived neurons at D1V21 and DIV28 were fixed in 4% paraformaldehyde and 4% sucrose solution in PBS, pH 7.4, for 20 min. […] Coverslips were washed 3 times again in PBS and mounted on slides using ProLong Gold mounting medium, containing 4′,6-dianiidino-2-phenylindole (DAPI; Invitrogen, Cat #P36935), and analyzed by a Leica SP8-DSL or Leica TCS SPE confocal microscopes (×63 glycerol immersion objectives, N.A. 1.4). Images were processed with Leica Application Suite X (LAS-X) software or Photoshop 2021 (Adobe) and quantified using Fiji-ImageJ 1.50i software (National Institutes of Health, Bethesda, MD, USA). […] Soma or axon areas were defined by TUBB3, NEUN, or NF-M staining and, within this area, the appropriate markers were measured establishing a threshold. […]

[4] = tested on: Hgsnat-Geo and Hgsnat^P304L MPS IIIC mice; test: Novel Object Recognition test; format: in vivo, mouse; details: single dose 17 hours before the test
[5] = DIV21, Hgsnat^P311L (P304L) neurons

AVP6: N-terminally acetylated Semax, a nootropic peptide having the amino acid sequence of MEHFPGP (SEQ ID NO:1) (Ac-MEHFPGP)
total β-hexosaminidase activity in total brain homogenates ([1]; Hgsnat^P304L mice at 5 months): remained similar
total β-hexosaminidase activity in brain homogenates ([1]; Hgsnat^P304L mice at terminal timepoint): trend for reduction
average survival age / life span [2]: 49 weeks
Synapsin 1-positive puncta [3, 5]: increase in Synapsin 1-positive puncta; also recorded: rescues deficit of both proteins
number of BDNF-positive punctae [3, 5]: increase in the number of BDNF-positive punctae; also recorded: rescues deficit of both proteins
levels of VGLUT1+, PSD-95+, SYN1+ and BDNF+ puncta ([3]; Hgsnat^P304L neurons): rescues reduced levels of synaptic markers; also recorded: significantly increased
behaviour in Novel Object Recognition test after single dose [4]: did not improve behaviour
